Measured values from PMC10882719 (Frontiers in Neuroscience, 2024).
Like-named read-outs stand apart in the source and are kept apart here.

Key:
Assay type in all cases: cell-based
[1] = target: T1, 168 GPCRs (Homo sapiens, UniProt P46663)
T1 construct: host or cells: PathHunter cell lines
T1 sequence (P46663 1-353): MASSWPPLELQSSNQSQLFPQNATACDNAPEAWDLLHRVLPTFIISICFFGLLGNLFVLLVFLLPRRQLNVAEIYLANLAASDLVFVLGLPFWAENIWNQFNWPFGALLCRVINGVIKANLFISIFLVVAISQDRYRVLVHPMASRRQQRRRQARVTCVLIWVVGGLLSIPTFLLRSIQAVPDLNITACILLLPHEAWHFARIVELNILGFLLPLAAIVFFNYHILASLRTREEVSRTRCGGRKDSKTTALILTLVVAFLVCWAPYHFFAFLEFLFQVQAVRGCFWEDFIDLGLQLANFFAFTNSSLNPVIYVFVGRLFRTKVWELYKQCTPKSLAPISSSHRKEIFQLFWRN

[2] = target: T2, 168 GPCRs (Homo sapiens, UniProt Q9UKP6); details: UTR2
T2 construct: host or cells: PathHunter cell lines
T2 sequence (Q9UKP6 1-389): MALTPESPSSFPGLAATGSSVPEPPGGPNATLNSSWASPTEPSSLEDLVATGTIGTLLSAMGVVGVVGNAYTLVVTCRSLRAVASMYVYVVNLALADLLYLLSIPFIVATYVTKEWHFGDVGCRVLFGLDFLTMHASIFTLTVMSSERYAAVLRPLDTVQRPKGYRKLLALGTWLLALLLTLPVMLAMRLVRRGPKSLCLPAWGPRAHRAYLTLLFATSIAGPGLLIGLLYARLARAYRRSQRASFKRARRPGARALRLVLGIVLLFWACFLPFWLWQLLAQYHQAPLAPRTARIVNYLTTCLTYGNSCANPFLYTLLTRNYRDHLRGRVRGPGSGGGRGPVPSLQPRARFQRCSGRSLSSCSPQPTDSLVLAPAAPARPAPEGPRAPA

[3] = target: T3, 168 GPCRs (Homo sapiens, UniProt P49146); details: NPY2R
T3 construct: host or cells: PathHunter cell lines
T3 sequence (P49146 1-381): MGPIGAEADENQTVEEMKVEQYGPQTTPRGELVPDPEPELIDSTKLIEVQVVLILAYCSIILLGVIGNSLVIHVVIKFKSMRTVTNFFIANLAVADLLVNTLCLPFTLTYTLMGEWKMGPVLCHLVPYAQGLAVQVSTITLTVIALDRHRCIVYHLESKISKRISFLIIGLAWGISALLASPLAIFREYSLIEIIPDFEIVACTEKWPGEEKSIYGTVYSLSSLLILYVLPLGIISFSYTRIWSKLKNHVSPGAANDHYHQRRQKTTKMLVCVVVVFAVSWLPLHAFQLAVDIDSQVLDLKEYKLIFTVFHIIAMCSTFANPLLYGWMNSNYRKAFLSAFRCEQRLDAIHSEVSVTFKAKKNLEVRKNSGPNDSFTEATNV

[4] = target: T4, 168 GPCRs (Homo sapiens, UniProt P35408); details: PTGER4
T4 construct: host or cells: PathHunter cell lines

[5] = target: T5, 168 GPCRs (Homo sapiens, UniProt P25101); details: EDNRA
T5 construct: host or cells: PathHunter cell lines
T5 sequence (P25101 21-427): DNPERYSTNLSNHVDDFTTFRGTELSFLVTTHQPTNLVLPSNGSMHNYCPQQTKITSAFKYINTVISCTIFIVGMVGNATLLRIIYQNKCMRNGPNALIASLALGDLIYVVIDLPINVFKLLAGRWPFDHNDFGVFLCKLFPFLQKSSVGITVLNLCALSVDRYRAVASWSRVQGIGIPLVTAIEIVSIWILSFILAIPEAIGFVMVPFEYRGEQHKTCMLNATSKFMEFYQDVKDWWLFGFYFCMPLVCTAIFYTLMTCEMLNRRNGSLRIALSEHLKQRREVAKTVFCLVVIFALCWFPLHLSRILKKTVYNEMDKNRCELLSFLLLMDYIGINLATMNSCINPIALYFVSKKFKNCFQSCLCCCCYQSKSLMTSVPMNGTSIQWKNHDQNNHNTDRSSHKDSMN

[6] = target: T6, 168 GPCRs (Homo sapiens, UniProt P47871); details: GCGR
T6 construct: host or cells: PathHunter cell lines
T6 sequence (P47871 26-477): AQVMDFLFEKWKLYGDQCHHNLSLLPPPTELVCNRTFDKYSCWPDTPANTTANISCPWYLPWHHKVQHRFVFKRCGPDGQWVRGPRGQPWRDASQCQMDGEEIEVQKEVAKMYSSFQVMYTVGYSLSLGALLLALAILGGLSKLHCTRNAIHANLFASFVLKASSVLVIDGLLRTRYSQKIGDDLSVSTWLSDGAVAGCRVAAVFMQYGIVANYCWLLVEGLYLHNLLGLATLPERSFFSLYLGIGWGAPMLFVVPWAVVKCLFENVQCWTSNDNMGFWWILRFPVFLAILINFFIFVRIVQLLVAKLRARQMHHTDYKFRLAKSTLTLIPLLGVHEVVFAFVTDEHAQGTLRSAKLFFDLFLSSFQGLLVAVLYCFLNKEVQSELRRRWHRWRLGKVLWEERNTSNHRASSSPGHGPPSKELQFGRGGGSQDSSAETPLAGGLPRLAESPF

T4 sequence (P35408 whole entry): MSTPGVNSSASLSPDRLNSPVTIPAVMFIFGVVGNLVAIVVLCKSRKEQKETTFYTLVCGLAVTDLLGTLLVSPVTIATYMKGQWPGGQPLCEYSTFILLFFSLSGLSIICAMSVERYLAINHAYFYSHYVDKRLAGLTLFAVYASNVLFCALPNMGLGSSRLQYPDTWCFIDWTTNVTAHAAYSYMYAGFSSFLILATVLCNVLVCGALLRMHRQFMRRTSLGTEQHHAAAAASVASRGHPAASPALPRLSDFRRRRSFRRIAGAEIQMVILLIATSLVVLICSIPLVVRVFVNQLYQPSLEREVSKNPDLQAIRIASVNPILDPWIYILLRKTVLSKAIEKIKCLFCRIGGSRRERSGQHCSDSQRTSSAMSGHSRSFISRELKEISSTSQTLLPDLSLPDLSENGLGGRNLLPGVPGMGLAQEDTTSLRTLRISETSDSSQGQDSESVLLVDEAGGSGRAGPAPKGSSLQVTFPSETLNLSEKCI

Q: Which “% Agonist Activity” value ([1]; BDKRB1, 1 uM) does the source give for `CNC(C)Cc1ccc2c(c1)OCO2` (stereo not drawn) [MDMA, 3,4-Methylenedioxy methamphetamine, reference compound] here?
A: -1.2%

Q: What about the “% Antagonist Activity” value ([1]; BDKRB1, 1 uM) of the same compound?
A: -17.1%

Q: And the “% Agonist Activity” value ([1]; BDKRB1, 10 uM)?
A: -0.2%

Q: What about the “% Antagonist Activity” value ([1]; BDKRB1, 10 uM) of the same compound?
A: -12.7%

Q: And the “% Agonist Activity” value ([2]; Conc 1 uM)?
A: -1.1%

Q: And the “% Antagonist Activity” value ([2]; Conc 1 uM)?
A: 4.4%

Q: What about the “% Agonist Activity” value ([2]; Conc 10 uM) of the same compound?
A: -0.1%

Q: And the “% Antagonist Activity” value ([2]; Conc 10 uM)?
A: 14.3%

Q: What about the “% Agonist Activity” value ([3]; Conc 1 uM) of the same compound?
A: -0.1%

Q: What about the “% Antagonist Activity” value ([3]; Conc 1 uM) of the same compound?
A: 12%

Q: And the “% Agonist Activity” value ([3]; Conc 10 uM)?
A: 0.2%

Q: And the “% Antagonist Activity” value ([3]; Conc 10 uM)?
A: 4.8%

Q: What about the “% Agonist Activity” value ([4]; Conc 1 uM) of the same compound?
A: 11.1%

Q: What about the “% Antagonist Activity” value ([4]; Conc 1 uM) of the same compound?
A: 7.2%

Q: What about the “% Agonist Activity” value ([4]; Conc 10 uM) of the same compound?
A: 7.8%

Q: And the “% Antagonist Activity” value ([4]; Conc 10 uM)?
A: 11.7%

Q: And the “% Agonist Activity” value ([5]; 1 uM)?
A: -1.1%

Q: What about the “% Antagonist Activity” value ([5]; 1 uM) of the same compound?
A: 2.5%

Q: What about the “% Agonist Activity” value ([5]; 10 uM) of the same compound?
A: -1.9%

Q: What about the “% Antagonist Activity” value ([5]; 10 uM) of the same compound?
A: 4.6%

Q: What about the “% Agonist Activity” value ([6]; 1 uM) of the same compound?
A: -1%

Q: What about the “% Antagonist Activity” value ([6]; 1 uM) of the same compound?
A: -1.7%

Q: And the “% Agonist Activity” value ([6]; 10 uM)?
A: -0.9%

Q: What about the “% Antagonist Activity” value ([6]; 10 uM) of the same compound?
A: -7.4%

Q: With `CNC(C)C(=O)c1ccc2c(c1)OCO2` (stereo not drawn) [methylone] as the compound, how does the “% Agonist Activity” value ([1]; BDKRB1, 1 uM) read?
A: -1.7%

Q: What about the “% Antagonist Activity” value ([1]; BDKRB1, 1 uM) of the same compound?
A: 2.8%

Q: And the “% Agonist Activity” value ([1]; BDKRB1, 10 uM)?
A: -2.5%

Q: And the “% Antagonist Activity” value ([1]; BDKRB1, 10 uM)?
A: 12.1%

Q: And the “% Agonist Activity” value ([2]; Conc 1 uM)?
A: 0.6%

Q: What about the “% Antagonist Activity” value ([2]; Conc 1 uM) of the same compound?
A: -2.1%

Q: And the “% Agonist Activity” value ([2]; Conc 10 uM)?
A: 0%

Q: And the “% Antagonist Activity” value ([2]; Conc 10 uM)?
A: 4.2%

Q: What about the “% Agonist Activity” value ([3]; Conc 1 uM) of the same compound?
A: -0.1%

Q: What about the “% Antagonist Activity” value ([3]; Conc 1 uM) of the same compound?
A: 2.3%

Q: And the “% Agonist Activity” value ([3]; Conc 10 uM)?
A: 0.2%

Q: And the “% Antagonist Activity” value ([3]; Conc 10 uM)?
A: 2%

Q: What about the “% Agonist Activity” value ([4]; Conc 1 uM) of the same compound?
A: -2.8%

Q: What about the “% Antagonist Activity” value ([4]; Conc 1 uM) of the same compound?
A: 10.1%

Q: What about the “% Agonist Activity” value ([4]; Conc 10 uM) of the same compound?
A: -1.4%

Q: What about the “% Antagonist Activity” value ([4]; Conc 10 uM) of the same compound?
A: 4.3%

Q: What about the “% Agonist Activity” value ([5]; 1 uM) of the same compound?
A: 0.3%

Q: And the “% Antagonist Activity” value ([5]; 1 uM)?
A: -2.4%

Q: What about the “% Agonist Activity” value ([5]; 10 uM) of the same compound?
A: 1.4%

Q: And the “% Antagonist Activity” value ([5]; 10 uM)?
A: -11.3%

Q: What about the “% Agonist Activity” value ([6]; 1 uM) of the same compound?
A: -2.3%

Q: And the “% Antagonist Activity” value ([6]; 1 uM)?
A: -16%

Q: And the “% Agonist Activity” value ([6]; 10 uM)?
A: -3%

Q: And the “% Antagonist Activity” value ([6]; 10 uM)?
A: -7.7%
